Laboratory results: patent publication US20210093551A1, “Methods Of Use Of Oral Care Compositions Comprising Hops” (The Procter & Gamble Company, priority 2019, published 2021)

Tested on: plaque biofilm grown from fresh pooled human saliva
Assay: in vitro plaque glycolysis model (iPGRM): acid production and glycolysis inhibition after treatment of 3-day biofilm
Type: cell-based, plaque microorganisms from human saliva
Procedure: Acid production and acid inhibition were determined with the in vitro plaque glycolysis model (iPGRM). The purpose of this technique is to provide a simple and quick method for determining if compounds have an influence on the metabolic pathways that plaque microorganisms utilize to produce toxins that adversely affect gingival health.
The in vitro plaque glycolysis model (iPGRM) is a technique in which plaque is grown from human saliva and treated with various agents to determine anti-glycolytic activity of treatments. When bacteria convert sugar into energy with the help of enzymes, acids are formed. These acids demineralize and damage the dental enamel. The purpose of this technique is to provide a simple and quick method for determining if treatment compounds have an inhibitory effect on the metabolic pathways that plaque microorganisms utilize for the production of acids or toxins and/or inhibit their growth. […]
[…] The pH of the media solutions was then measured to determine the amount of glycolysis inhibition relative to a negative control.
On Day 1, new glass rods (5 mm×90 mm) were polished approximately 25 mm from the un-tapered end on a lathe with silicon carbide paper of 240, 320, 400, and 600 grit used sequentially. […] After polishing, rods were stored until ready to run test. […]

SMILES: [H]/N=C(\N/C(=N/[H])NCCCCCCNC(=N)NC(=N)Nc1ccc(Cl)cc1)Nc1ccc(Cl)cc1 [1% Chlorhexidine, Chlorhexidine]
- Mean Acid Inhibition (%) Mean (2 min treatment (1:5 in water), glycolysis inhibition relative to negative control (Crest Cavity Protection)): 75.12%
- Acid Production (ΔpH) Mean (2 min treatment with dentifrice slurry or diluted treatment in water (1:5), ΔpH versus blank vials): 0.4 ΔpH
